Laboratory results: patent US12570642B2, “GLP-IR modulating compounds” (Gilead Sciences, Inc., priority 2021, dated 2026)
Like-named read-outs stand apart in the source and are kept apart here.

Tests used:
GLP-1R = GLP-1R (Homo sapiens, UniProt P43220); assay: GLP-1R Activation - cAMP Assay; assay type: cell-based; details: each compound run on one of the two cAMP assays (Assay 1 or Assay 2, not specified)
In short: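 CHO cells stably expressing GLP-1R, plated at 1,000 cells/well overnight, then equilibrated 1 h in HBSS with 20 mM Hepes and 0.1% BSA. Agonist added as 10-point dose response for 30 min at 37 °C. cAMP measured by HTRF (Cisbio Gs Dynamic kit); EC50 from sigmoidal fit.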

[1] = Pharmacokinetic (PK) studies, in vivo monkey oral PK; set-up: species or system Cynomolgus monkeys; details: Cynomolgus monkey; for Tmax / AUC(0-t) / Cmax / bioavailability: plasma; for AUC(0-t): read-out: AUC0-24 (Arbitrary units); for Cmax: read-out: Cmax (Arbitrary unit); for bioavailability: read-out: F % (oral bioavailability)
Method: Pharmacokinetic (PK) Studies Test Articles:
Examples 60, 115, 117, and 119 were tested along with comparative examples CE-1 and CE-2.
Dose Formulation Preparation
Compounds CE-2, Example 60, Example 115, Example 117, and Example 119 were combined with a mixture of 10% NMP (v:v) and 90% PEG300 (v:v), and the mixture was stirred until a homogeneous solution was obtained.
Compound CE-1 was combined with a mixture of 15% 2-hydroxypropyl-β-cyclodextrin (w:v) and 85% Milli-Q water (v:v), and the mixture was stirred until a homogeneous solution was obtained.
Young adult non-naive Cynomolgus monkeys with weight about 2.5-5 kg (n=1-3/test article/route) were fasted overnight and then dosed with either CE-1, CE2, Example 60, Example 115, Example 117 or Example 119. Food was supplied approximately 4 hours post dose and animals were provided with free access to water all the time. Animals were restrained at designated time points for blood sampling. Approximately 500 μL of blood samples was taken via cephalic or saphenous vein into EDTA-K2 tubes. For oral administration (PO): blood samples were generally collected pre-dose, and at 15 min, 30 min, 1 hr., 2 hr., 4 hr., 8 hr., 12 hr., and 24 hr. time points after dosing. Blood was be maintained on wet ice, in chilled cryoracks, or at approximately 5° C. prior to centrifugation to obtain plasma. Centrifugation was conducted within 1 hour of collection. Plasma (approximately 200 μL) was placed into a micronic tubes containing 4 μL of formic acid (the final concentration of formic acid in plasma was approximately 2%) and samples were vortex mixed. Samples were maintained on dry ice prior to storage at approximately −70° C.
LC-MS/MS assays were utilized to quantify the concentration of the test articles in plasma as follows.
50 μL plasma sample was mixed with 350 μL of ACN combined with an internal standard. The mixture was then vortexed for about 1-5 min, and centrifuged at about 4,000-5,800 rpm for about […]. An aliquot of 1 μL supernatant was used for LC-MS/MS analysis.
MS conditions: A Sciex API 6500 equipped with electrospray ionization in the positive ion selected reaction monitoring mode was used for detection.
HPLC conditions • Mobile Phase A: H2O-0.11% Formic Acid • Mobile Phase B: ACN-0.1% Formic Acid
• Column: Phenomenex Kinetex XBCl8 (2.1×50 mm, 2.6 μm) with a flow rate of 1.20 mL/min • Column temperature: 60° C. • Retention time: approximately between 0.85 to 1.05 • min Pharmacokinetics (PK) Parameters
Pharmacokinetics parameters, including area under the curve (AUC0-24), maximum plasma concentration (Cmax), time to reach maximum plasma concentration (Tmax), oral bioavailability (F %), etc., were calculated using Dotmatics software in non-compartmental model.

[2] = cAMP increase in CHO cells stably expressing GLP-1R

Chain of GLP-1R (P43220 24-463): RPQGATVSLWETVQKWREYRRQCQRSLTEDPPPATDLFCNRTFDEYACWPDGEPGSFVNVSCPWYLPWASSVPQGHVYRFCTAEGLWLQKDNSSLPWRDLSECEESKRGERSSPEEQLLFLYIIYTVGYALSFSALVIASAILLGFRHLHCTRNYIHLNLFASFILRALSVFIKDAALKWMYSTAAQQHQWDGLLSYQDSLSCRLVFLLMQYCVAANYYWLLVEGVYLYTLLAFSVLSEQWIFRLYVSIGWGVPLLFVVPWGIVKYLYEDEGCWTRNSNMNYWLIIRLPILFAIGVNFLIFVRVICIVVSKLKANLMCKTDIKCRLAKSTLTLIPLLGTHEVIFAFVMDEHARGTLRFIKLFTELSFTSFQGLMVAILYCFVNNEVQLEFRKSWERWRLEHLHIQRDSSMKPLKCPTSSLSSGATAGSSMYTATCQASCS

In the case of `CC1(C)COC[C@H]1n1c(Cc2cc(F)c(-c3ccnc(OCc4ccc(Cl)cc4F)n3)cc2F)nc2c(F)cc(C(=O)O)cc21` [Example 117, (S)-2-(4-(2-((4-chloro-2-fluorobenzyl)oxy)pyrimidin-4-yl)-2,5-difluorobenzyl)-1-(4,4-dimethyltetrahydrofuran-3-yl)-4-fluoro-1H-benzo[d]imidazole-6-carboxylic Acid], the EC50 (GLP-1R; [2]) is reported as 0.044 nM, the Tmax ([1]; single oral dose 2 mg/kg) is reported as 4.7 ± 2.3 h and the AUC(0-t) ([1]; single oral dose 2 mg/kg) is reported as 12.8 ± 4.01 µM·h. It also gave a Cmax ([1]; single oral dose 2 mg/kg) of 1600 ± 832 nM and a bioavailability ([1]; single oral dose 2 mg/kg) of 52.2 ± 16.3%.

With `N#Cc1ccc(COc2cccc(-c3cc(F)c(Cc4nc5ccc(C(=O)O)cc5n4C[C@@H]4CCO4)cc3F)n2)c(F)c1` [CE-2, (S)-2-(4-(6-((4-cyano-2-fluorobenzyl)oxy)pyridin-2-yl)-2,5-difluorobenzyl)-1-(oxetan-2-ylmethyl)-1H-benzo[d]imidazole-6-carboxylic acid, reference compound] the duration of exposure ([1]; single oral dose 2 mg/kg) was “sustained exposures over 24 h”, the Tmax ([1]; single oral dose 2 mg/kg) was 4 ± 2 h and the AUC(0-t) ([1]; single oral dose 2 mg/kg) was 2.81 ± 1.33 µM·h. It also gave a Cmax ([1]; single oral dose 2 mg/kg) of 224 ± 130 nM and a bioavailability ([1]; single oral dose 2 mg/kg) of 27.4%.

For `CC1(C)COC[C@H]1n1c(Cc2cc(F)c(-c3cccc(OCc4ccc(Cl)cc4F)n3)cc2F)nc2ccc(C(=O)O)cc21` [Example 115], the EC50 (GLP-1R; [2]) was 0.122 nM, the Tmax ([1]; single oral dose 2 mg/kg) was 2.7 ± 1.2 h and the AUC(0-t) ([1]; single oral dose 2 mg/kg) was 17.9 ± 2.04 µM·h. The Cmax ([1]; single oral dose 2 mg/kg) was 1540 ± 166 nM and the bioavailability ([1]; single oral dose 2 mg/kg) was 42 ± 16.5%.

For `N#Cc1ccc(COc2cccc(C3CCN(Cc4nc5ccc(C(=O)O)cc5n4C[C@@H]4CCO4)CC3)n2)c(F)c1` [CE-1, (S)-2-((4-(6-((4-cyano-2-fluorobenzyl)oxy)pyridin-2-yl)piperidin-1-yl)methyl)-1-(oxetan-2-ylmethyl)-1H-benzo[d]imidazole-6-carboxylic acid, reference compound], the plasma concentrations ([1]; over a period of 12 h after a single oral dose of 1 mg/kg) was < 10 nM, the Tmax ([1]; single oral dose 1 mg/kg) was 2.2 ± 1.8 h and the AUC(0-t) ([1]; single oral dose 1 mg/kg) was 0.0477 ± 0.0133 µM·h. The Cmax ([1]; single oral dose 1 mg/kg) was 4.5 ± 0.8 nM, the “plasma exposure after the 12 h period” value ([1]; single oral dose of 1 mg/kg, after 12 h) was “below the detection limit” and the bioavailability ([1]; single oral dose 1 mg/kg) was 2.5%.

Compound `CC1(C)COC[C@H]1n1c(Cc2cc(F)c(-c3cccc(OCc4ccc(C#N)cc4)n3)cc2F)nc2ccc(C(=O)O)cc21` [Example 119, (S)-2-(4-(6-((4-cyanobenzyl)oxy)pyridin-2-yl)-2,5-difluorobenzyl)-1-(4,4-dimethyltetrahydrofuran-3-yl)-benzimidazole-6-carboxylic Acid] has an EC50 (GLP-1R; [2]) of 0.031 nM, a Tmax ([1]; single oral dose 2 mg/kg) of 1.7 ± 0.6 h and an AUC(0-t) ([1]; single oral dose 2 mg/kg) of 19.4 ± 3.31 µM·h. It also gave a Cmax ([1]; single oral dose 2 mg/kg) of 1190 ± 137 nM and a bioavailability ([1]; single oral dose 2 mg/kg) of 47.6 ± 8.1%.

In the case of `CC1(C)COC[C@H]1n1c(Cc2cc(F)c(-c3cccc(OCc4ccc(C#N)cc4F)n3)cc2F)nc2ccc(C(=O)O)cc21` [Example 60], the EC50 (GLP-1R; [2]) is reported as 0.04 nM, the Tmax ([1]; single oral dose 2 mg/kg) is reported as 1.5 ± 0.9 h and the AUC(0-t) ([1]; single oral dose 2 mg/kg) is reported as 5.57 ± 2.19 µM·h. It also gave a Cmax ([1]; single oral dose 2 mg/kg) of 385 ± 82 nM and a bioavailability ([1]; single oral dose 2 mg/kg) of 47.6 ± 12.3%.

`COCCn1c(Cc2cc(F)c(-c3cccc(OCc4ccc(C#N)cc4F)n3)cc2F)nc2c(-c3cnn(CCN4CCOCC4)c3)cc(C(=O)O)cc21` [Example 56, 2-(4-(6-((4-cyano-2-fluorobenzyl)oxy)pyridin-2-yl)-2,5-difluorobenzyl)-1-(2-methoxyethyl)-4-(1-(2-morpholinoethyl)-1H-pyrazol-4-yl)-1H-benzo[d]imidazole-6-carboxylic Acid] gave an EC50 (GLP-1R; [2]) of 903 nM.

Compound `CC1(C)COC[C@H]1n1c(Cn2cc(F)c(-c3ccc(F)c(OCc4ccc(C#N)cc4F)n3)cc2=O)nc2c(F)cc(C(=O)O)cc21` [Example 132, (S)-2-((6-((4-cyano-2-fluorobenzyl)oxy)-5,5′-difluoro-2′-oxo-[2,4′-bipyridin]-1′(2′H)-yl)methyl)-1-(4,4-dimethyltetrahydrofuran-3-yl)-4-fluoro-1H-benzo[d]imidazole-6-carboxylic Acid] has an EC50 (GLP-1R; [2]) of 0.043 nM.

With `CC1(C)COC[C@H]1n1c(Cc2cc(F)c(-c3cccc(OCc4ccc(C(F)(F)F)nc4)n3)cc2F)nc2ccc(C(=O)O)cc21` [Example 425, (S)-2-(2,5-difluoro-4-(6-((6-(trifluoromethyl)pyridin-3-yl)methoxy)pyridin-2-yl)benzyl)-1-(4,4-dimethyltetrahydrofuran-3-yl)-1H-benzo[d]imidazole-6-carboxylic acid] the EC50 (GLP-1R; [2]) was 0.494 nM.

`CC1(C)COC[C@H]1n1c(Cc2cc(F)c(-c3ccc(Cl)c(OCc4ccc(C#N)cc4)n3)cc2F)nc2ccc(C(=O)O)cc21` [Example 432, (S)-2-(4-(5-chloro-6-((4-cyanobenzyl)oxy)pyridin-2-yl)-2,5-difluorobenzyl)-1-(4,4-dimethyltetrahydrofuran-3-yl)-1H-benzo[d]imidazole-6-carboxylic acid] gave an EC50 (GLP-1R; [2]) of 0.114 nM.

With `CC(=O)N1C[C@@H](n2c(Cc3cc(F)c(-c4cccc(OCc5ccc(C#N)cc5F)n4)cc3F)nc3ccc(C(=O)O)cc32)C2(CC2)C1` [Example 15, (S)-1-(5-acetyl-5-azaspiro[2.4]heptan-7-yl)-2-(4-(6-((4-cyano-2-fluorobenzyl)oxy)pyridin-2-yl)-2,5-difluorobenzyl)-1H-benzo[d]imidazole-6-carboxylic Acid] the EC50 (GLP-1R; […]) was 71 nM.

With `O=C(O)c1cc(F)c2nc(Cc3cc(F)c(-c4ncc(F)c(OCc5ccc(C(F)(F)F)cc5F)n4)cc3F)n(C[C@@H]3CCO3)c2c1` [Example 148, (S)-2-(2,5-difluoro-4-(5-fluoro-4-((2-fluoro-4-(trifluoromethyl)benzyl)oxy)pyrimidin-2-yl)benzyl)-4-fluoro-1-(oxetan-2-ylmethyl)-1H-benzo[d]imidazole-6-carboxylic Acid] the EC50 (GLP-1R; [2]) was 0.174 nM.

`CC1(C)COC[C@H]1n1c(Cc2cc(F)c(-c3ccc(F)c(OCc4c(F)cccc4F)n3)cc2F)nc2ccc(C(=O)O)cc21` [Example 475, (S)-2-(4-(6-((2,6-difluorobenzyl)oxy)-5-fluoropyridin-2-yl)-2,5-difluorobenzyl)-1-(4,4-dimethyltetrahydrofuran-3-yl)-1H-benzo[d]imidazole-6-carboxylic acid] gave an EC50 (GLP-1R; [2]) of 0.601 nM.

With `CC1(C)COC[C@H]1n1c(Cc2c(F)cc(-c3cccc(OCc4ccc(C#N)cc4F)n3)cc2F)nc2ccc(C(=O)O)cc21` [Example 321, (S)-2-(4-(6-((4-cyano-2-fluorobenzyl)oxy)pyridin-2-yl)-2,6-difluorobenzyl)-1-(4,4-dimethyltetrahydrofuran-3-yl)-1H-benzo[d]imidazole-6-carboxylic acid] the EC50 (GLP-1R; [2]) was 0.083 nM.

`CC1(C)COC[C@H]1n1c(Cn2cc(F)c(-c3cccc(OCc4ccc(Cl)cc4)n3)cc2=O)nc2ccc(C(=O)O)cc21` [Example 297, (S)-2-((6-((4-chlorobenzyl)oxy)-5′-fluoro-2′-oxo-[2,4′-bipyridin]-1′(2′H)-yl)methyl)-1-(4,4-dimethyltetrahydrofuran-3-yl)-1H-benzo[d]imidazole-6-carboxylic acid] showed an EC50 (GLP-1R; [2]) of 0.151 nM.
